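Assay format: 96-well plates, 48-hour exposure. GI50: concentration for 50% inhibition of growth. TGI denotes the concentration required for complete inhibition of growth.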

Test systems include NCI-H522 lung; TK-10 renal; HOP-62 NSCLC; LOX IMVI melanoma; A498 renal; NCI-H460 lung; SK-MEL-2 melanoma; BT-549 breast; HOP-92 NSCLC; U251 CNS.
Holding throughout (test): NCI tumour cell line growth inhibition, 48 h

For `Oc1ccc2ccccc2c1N=Nc1nccs1`, the GI50 in the assay with NCI-H522 lung was 2220 nM; in the assay with TK-10 renal it was 8.28 µM; with HOP-62 NSCLC it was 3.87 µM; in the assay with LOX IMVI melanoma, 328 nM; in the assay on A498 renal it was 10.5 µM; in the assay with NCI-H460 lung it was 0.839 µM. Moreover, the GI50 was 3090 nM in the assay with SK-MEL-2 melanoma, 4.75 µM in the assay with BT-549 breast, 389 nM in the assay with HOP-92 NSCLC and 290 nM in the assay on U251 CNS. Moreover, the TGI was 12.4 µM in the assay on NCI-H522 lung; 22.2 µM with TK-10 renal; 56.8 µM in the assay on HOP-62 NSCLC; 17.5 µM in the assay on LOX IMVI melanoma; more than 96.7 µM with A498 renal; more than 100 µM in the assay with NCI-H460 lung. Moreover, the TGI in the assay on SK-MEL-2 melanoma was 34.5 µM; in the assay with BT-549 breast, 32.3 µM; in the assay with HOP-92 NSCLC it was more than 48.8 µM; with U251 CNS it was 13.4 µM.

Take `OCc1c[nH]c2ccccc12`: the GI50 with NCI-H522 lung is 16700 nM; in the assay with TK-10 renal, 44.5 µM; with HOP-62 NSCLC, 14.4 µM; with LOX IMVI melanoma, 16200 nM; in the assay with A498 renal, 31.3 µM; in the assay on NCI-H460 lung, 21 µM. Also, the GI50 in the assay on SK-MEL-2 melanoma is 17400 nM; with BT-549 breast, 28.9 µM; with HOP-92 NSCLC, 9350 nM; in the assay on U251 CNS, 21900 nM. Also, the TGI is 37.1 µM with NCI-H522 lung; more than 100 µM in the assay on TK-10 renal; 36.7 µM with HOP-62 NSCLC; 32.7 µM in the assay with LOX IMVI melanoma; more than 100 µM with A498 renal; 45.4 µM with NCI-H460 lung. Further, the TGI in the assay with SK-MEL-2 melanoma came to 32.8 µM; in the assay with BT-549 breast it was 73.3 µM; with HOP-92 NSCLC, 63.5 µM; in the assay on U251 CNS, 62 µM.

For the molecule `N#Cc1ccc(O)c(C2=NCC(c3cccc(Oc4ccccc4)c3)O2)c1` (stereo not drawn), the GI50 in the assay with NCI-H522 lung is 1170 nM; in the assay on HOP-62 NSCLC it was 0.605 µM; in the assay with LOX IMVI melanoma, 420 nM; with A498 renal it was 2.06 µM; with NCI-H460 lung it was 0.434 µM; in the assay with SK-MEL-2 melanoma, 2410 nM. In addition, the GI50 is 1.96 µM with BT-549 breast, 1810 nM in the assay with HOP-92 NSCLC and 503 nM with U251 CNS. For the same molecule, the TGI turned out to be 12.3 µM with NCI-H522 lung; 12.7 µM in the assay with HOP-62 NSCLC; 12.7 µM in the assay with LOX IMVI melanoma; 22.3 µM in the assay on A498 renal; 10.2 µM with NCI-H460 lung; 24.4 µM in the assay on SK-MEL-2 melanoma. Also, the TGI was 17.8 µM in the assay on BT-549 breast, 37 µM with HOP-92 NSCLC and more than 100 µM in the assay on U251 CNS.

On to `CC(C)c1nc(CN(C)C(=O)N[C@H](C(=O)N[C@@H](Cc2ccccc2)C[C@H](O)[C@H](Cc2ccccc2)NC(=O)OCc2cncs2)C(C)C)cs1`, for which the GI50 with NCI-H522 lung is 28700 nM; with TK-10 renal, 36.6 µM; in the assay on HOP-62 NSCLC it was 19.6 µM; in the assay on LOX IMVI melanoma, 18900 nM; in the assay with A498 renal it was 19.1 µM; in the assay on NCI-H460 lung it was 17.5 µM. Further, the GI50 is 31700 nM with SK-MEL-2 melanoma, 8.71 µM in the assay on BT-549 breast, 20800 nM with HOP-92 NSCLC and 24300 nM with U251 CNS. In addition, the TGI is more than 81 µM in the assay with NCI-H522 lung; more than 92.6 µM with TK-10 renal; 38.2 µM in the assay on HOP-62 NSCLC; 40.1 µM in the assay on LOX IMVI melanoma; 43.2 µM in the assay with A498 renal; 55.7 µM in the assay with NCI-H460 lung. The TGI was more than 100 µM in the assay with SK-MEL-2 melanoma, more than 76.5 µM in the assay on BT-549 breast, 49.5 µM with HOP-92 NSCLC and 71.2 µM in the assay with U251 CNS.

`COc1ccc(-c2cc(=O)c3c(OC)c(OC)c(OC)cc3o2)cc1`: the TGI was 85.3 µM in the assay with NCI-H522 lung; more than 100 µM in the assay on TK-10 renal; 59.8 µM in the assay with HOP-62 NSCLC; 81.5 µM in the assay with LOX IMVI melanoma; 84 µM in the assay on A498 renal; 81.4 µM with NCI-H460 lung. Moreover, the TGI with SK-MEL-2 melanoma is 56 µM; in the assay on BT-549 breast, more than 100 µM; in the assay with HOP-92 NSCLC, 79.9 µM; with U251 CNS, more than 100 µM.

Regarding `CC/C(=C(/c1ccc(O)cc1)c1ccc(OCCNC)cc1)c1ccccc1`, the GI50 in the assay with NCI-H522 lung was 1870 nM; in the assay on TK-10 renal, 2.76 µM; in the assay with HOP-62 NSCLC, 2.03 µM; in the assay with LOX IMVI melanoma it was 1750 nM; in the assay on A498 renal, 1.64 µM; in the assay on NCI-H460 lung, 1.84 µM. In addition, the GI50 in the assay with SK-MEL-2 melanoma was 2080 nM; with BT-549 breast, 3.37 µM; in the assay with HOP-92 NSCLC, 1180 nM; with U251 CNS, 1540 nM. Besides, the TGI in the assay on NCI-H522 lung came out at 3.68 µM; with TK-10 renal, 7.76 µM; in the assay on HOP-62 NSCLC, 4.44 µM; with LOX IMVI melanoma, 3.17 µM; with A498 renal it was 6.55 µM; in the assay with NCI-H460 lung, 3.37 µM. For the same molecule, the TGI was 3.77 µM with SK-MEL-2 melanoma, 13.9 µM with BT-549 breast, 3.72 µM in the assay with HOP-92 NSCLC and 2.93 µM in the assay on U251 CNS.

Turning to `COc1cc(C2=NOC(c3cc(OC)c(OC)c(OC)c3)C2)ccc1OCCCCOc1cc2c(cc1OC)C(=O)N1CCC[C@H]1C=N2` (stereo partly drawn), the GI50 with NCI-H522 lung is 217 nM; in the assay with TK-10 renal, 0.273 µM; in the assay on HOP-62 NSCLC, 0.29 µM; with LOX IMVI melanoma, 215 nM; in the assay with A498 renal, 0.194 µM; in the assay on NCI-H460 lung it was 0.275 µM. For the same molecule, the GI50 in the assay with SK-MEL-2 melanoma is 241 nM; in the assay with BT-549 breast it was 0.156 µM; with HOP-92 NSCLC it was 339 nM; in the assay with U251 CNS, 315 nM. The TGI was found to be 2.13 µM in the assay with NCI-H522 lung; 0.704 µM in the assay with TK-10 renal; 0.709 µM in the assay with HOP-62 NSCLC; 0.495 µM with LOX IMVI melanoma; 0.396 µM in the assay on A498 renal; 0.612 µM with SK-MEL-2 melanoma. In addition, the TGI in the assay on BT-549 breast worked out at 0.385 µM; with HOP-92 NSCLC it was 3.08 µM; in the assay on U251 CNS, 1.1 µM.

`CCN(CC)c1ccc(/C=C/c2ccc3cc(C)ccc3[n+]2CC)cc1`: the GI50 was 83.5 nM in the assay on NCI-H522 lung; 0.146 µM in the assay with TK-10 renal; 0.158 µM in the assay with HOP-62 NSCLC; 66.6 nM with LOX IMVI melanoma; 0.149 µM in the assay with A498 renal; 173 nM with SK-MEL-2 melanoma. For the same molecule, the results for the GI50 with BT-549 breast, in the assay on HOP-92 NSCLC and in the assay with U251 CNS were 0.0314 µM, 147 nM and 44.1 nM, respectively. Moreover, the TGI came to 2.55 µM in the assay on NCI-H522 lung; 11.8 µM with TK-10 renal; 6.21 µM in the assay with HOP-62 NSCLC; 1.2 µM in the assay on LOX IMVI melanoma; 1.78 µM in the assay on A498 renal; 0.71 µM in the assay with SK-MEL-2 melanoma. Moreover, the TGI was determined as 1.39 µM in the assay on BT-549 breast, 0.87 µM in the assay on HOP-92 NSCLC and 14.5 µM with U251 CNS.

`FC(F)(F)c1cccc(Nc2nccc(-c3cnn4nc(-c5ccccc5)ccc34)n2)c1`: the GI50 was 6880 nM in the assay with NCI-H522 lung; 9.22 µM in the assay with TK-10 renal; 8.1 µM in the assay with HOP-62 NSCLC; 6180 nM in the assay on LOX IMVI melanoma; more than 14 µM in the assay with A498 renal; 5.23 µM in the assay on NCI-H460 lung. The GI50 with BT-549 breast was 18.8 µM; in the assay with HOP-92 NSCLC, 3540 nM; in the assay with U251 CNS, 4580 nM. The TGI in the assay with NCI-H522 lung was more than 18.5 µM; with TK-10 renal it was more than 19.2 µM; with HOP-62 NSCLC it was more than 20.7 µM; in the assay with LOX IMVI melanoma it was more than 17.7 µM; in the assay with A498 renal, more than 25 µM; in the assay with NCI-H460 lung it was 11.1 µM. In addition, the results for the TGI in the assay on BT-549 breast, with HOP-92 NSCLC and in the assay with U251 CNS were more than 25 µM, 10.9 µM and 10.1 µM, respectively.

Take `O=C1Nc2c(C(F)(F)F)cccc2[C@]1(c1ccc(O)cc1)c1ccc(OC(F)(F)F)cc1`: the GI50 is 12900 nM in the assay on NCI-H522 lung; 11.5 µM with TK-10 renal; 15.7 µM in the assay on HOP-62 NSCLC; 14.7 µM in the assay with A498 renal; 8.43 µM in the assay with NCI-H460 lung; 12600 nM with SK-MEL-2 melanoma. For the same molecule, the GI50 is 2.18 µM with BT-549 breast, 5820 nM in the assay on HOP-92 NSCLC and 11100 nM with U251 CNS. Further, the TGI in the assay with NCI-H522 lung stood at 28.5 µM; in the assay on TK-10 renal, 25.3 µM; with HOP-62 NSCLC, 39.9 µM; in the assay on A498 renal, 30 µM; in the assay on NCI-H460 lung, 28.8 µM; with SK-MEL-2 melanoma it was 28.2 µM. For the same molecule, the TGI in the assay with BT-549 breast came out at 8.43 µM; in the assay on HOP-92 NSCLC, 21.5 µM; in the assay on U251 CNS it was 24.6 µM.

As for `CS(=O)(=O)c1ccc([C@H]2O[C@@H](CO)C[C@]2(O)c2ccc(S(C)(=O)=O)cc2)cc1`, the GI50 was more than 100000 nM in the assay on NCI-H522 lung; more than 100 µM with TK-10 renal; more than 100 µM in the assay on HOP-62 NSCLC; more than 100000 nM in the assay with LOX IMVI melanoma; more than 100 µM in the assay with A498 renal; more than 100 µM in the assay on NCI-H460 lung. Also, the GI50 was more than 100 µM in the assay on BT-549 breast, more than 100000 nM with HOP-92 NSCLC and more than 100000 nM in the assay on U251 CNS. The TGI in the assay on NCI-H522 lung, in the assay on TK-10 renal, in the assay with HOP-62 NSCLC, in the assay with LOX IMVI melanoma, with A498 renal and in the assay with NCI-H460 lung was more than 100 µM in each case. Besides, the TGI with BT-549 breast, in the assay with HOP-92 NSCLC and in the assay on U251 CNS was more than 100 µM in each case.

Regarding `CC(C)(CC(=O)Nc1ccccc1)C(=O)O`, the TGI in the assay with TK-10 renal, in the assay on HOP-62 NSCLC, in the assay on LOX IMVI melanoma, in the assay on A498 renal, in the assay on NCI-H460 lung and in the assay with SK-MEL-2 melanoma was more than 100 µM in each case. For the same molecule, the TGI in the assay with BT-549 breast, with HOP-92 NSCLC and with U251 CNS was more than 100 µM in each case.
